In US12053506B2, “Romo1-derived antimicrobial peptides and variants thereof” (priority 2019, dated 2024):
In brackets after ≈: the same amount, converted by molar mass. Like-named read-outs stand apart in the source and are kept apart here. Non-standard residues stand in square brackets, D forms with d. Residues, ends and D or L forms follow the SMILES beside them. No end group written: not given here.

Columns and labels:
[1] = system: Staphylococcus aureus (ATCC 29213); format: cell-based; conditions: for MBC Staphylococcus aureus: Tables 11-15, no unit printed
Summary of the method: (§1)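 Bacteria grown in 3% TSB at 37° C, diluted in 10 mM sodium phosphate/1% TSB to 1×10^5 CFU/ml in wells, exposed to peptides (0–300 μg/ml) for 1 h at 37° C. Mixtures plated on TS agar for 18 h at 37° C; MBC is the lowest concentration giving no colonies.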

[2] = system: Pseudomonas aeruginosa (ATCC 27853); format: cell-based; conditions: for MBC Pseudomonas aeruginosa: Tables 11-15, no unit printed
Summary of the method: as §1

[3] = system: mouse red blood cells; format: cell-based
Description: Red blood cells were diluted with PBS, centrifuged 3 times at 900 g for 10 minutes, and washed. 100 μl of the diluted red blood cell solution (10% v/v PBS) was dispensed into each well of a 96-well microplate, and KU-5878, KU-5878-K4, KU-5878-K4-D, melittin, magainin 2 or daptomycin was added to each well which was then filled with PBS to 200 μl, followed by reaction by incubation at 37° C. for 1 hour. Then, the supernatant of the reaction solution was separated, and the absorbance at a wavelength of 550 nm was measured using a spectrophotometer. As control, PBS and 0.1% Triton X-100 (Triton X-100) solution were used.
Based on the results of measurement of the absorbance, the degree of red blood cell destruction was calculated according to Equation 1 below, and the results of the calculation are shown in FIG. 6. The % intact RBC=100(%)−[(absorbance of peptide-treated red blood cell solution−absorbance of PBS-treated red blood cell solution)/(absorbance of Triton X-100-treated red blood cell solution−absorbance of PBS-treated red blood cell solution)×100(%)] [Equation 1]

[4] = system: Multidrug-resistant A. baumannii; conditions: multidrug-resistant, 4 h
Description: (§2) The minimum bactericidal concentration assay was the same as the method used in Example 1.
(§3) Specifically, each type of bacteria was cultured in 3% (w/v) TSB (Tryptic Soy Broth) liquid medium at 37° C. and 200 rpm for 4 hours, and then further cultured under the same conditions for 3 hours to a concentration of 5×10^6 CFU/ml. Strain solutions were prepared by diluting each of the […] of 2×10^5 CFU/ml.
(§4) Then, the KU-5878 peptide at varying concentrations (0 μg/ml to 300 μg/ml) was dispensed into each well of a 96-well microplate, and 100 μl (1×10^5 CFU/ml) of each of the prepared strain solutions was added thereto, mixed therewith, and allowed to react with the peptide in an incubator at 37° C. for 1 hour.
(§5) In addition, 10 μl of each reaction solution of the peptide and the strain was plated on the TS agar plate at a constant size, and incubated in an incubator at 37° C. for 18 hours, and then colony formation on the plate was checked.
(§6) Meanwhile, the multidrug-resistant Pseudomonas aeruginosa, multidrug-resistant Acinetobacter and multidrug-resistant Klebsiella in Table 2 below were bacteria isolated from patients at Korea University Anam Hospital. […] Then, these bacteria were used in the experiment.

[5] = system: Multidrug-resistant K. pneumoniae; conditions: multidrug-resistant, 4 h
Description: as §2, §3, §4, §5, §6

[6] = system: Vancomycin-resistant E. faecium (NCCP 11522); format: cell-based, Enterococcus faecium; conditions: Vancomycin-resistant (NCCP 11522, 4 h)
Description: as §2, §3, §4
as §5, with “checked. The minimum bactericidal concentration was defined as the minimum concentration of the peptide at which no colony was formed, and the experimental results are shown in Table 2 below.” for “checked.”

[7] = system: Streptococcus pneumoniae (NCCP 14585); format: cell-based; conditions: NCCP 14585, 4 h
Description: as §2, §3, §4
as §5, with “checked. The minimum bactericidal concentration was defined as the minimum concentration of the peptide at which no colony was formed, and the experimental results are shown in Table 2 below.” for “checked.”

[8] = system: Vancomycin-resistant S. aureus (NCCP 15872); format: cell-based, Staphylococcus aureus; conditions: Vancomycin-resistant (NCCP 15872, 4 h)
Description: as §2, §3, §4
as §5, with “checked. The minimum bactericidal concentration was defined as the minimum concentration of the peptide at which no colony was formed, and the experimental results are shown in Table 2 below.” for “checked.”

[9] = system: methicillin-resistant Staphylococcus aureus (ATCC 33591); conditions: for MBC value (μg/ml) against methicillin-resistant Staphylococcus aureus: ATCC 33591, 4 h; for MBC MRSA: Tables 11-15, no unit printed
[10] = system: multidrug-resistant Pseudomonas aeruginosa; conditions: 4 h
Description: First, each of Pseudomonas aeruginosa (ATCC 27853) and Staphylococcus aureus (ATCC 29213) was cultured in 3% (w/v) TSB (Tryptic Soy Broth) liquid medium at 37° C. and 200 rpm for 4 hours, and then further cultured under the same conditions for 3 hours to a concentration of 5×10^6 CFU/ml. Strain solutions were prepared by diluting each of the further cultured strains with SP (sodium phosphate; 10 mM sodium phosphate, 1% TSB) buffer to a final concentration of 2×10^5 CFU/ml.
as §4, with “each” for “the KU-5878”
In addition, 30 g/L of TS (tryptic soy) and 15 g/L of agar were dissolved in distilled water and sterilized, and then 25 ml of the solution was poured onto a 100 mm round plate and solidified at room temperature for one day or more, thereby preparing a TS agar plate. 10 μl of each reaction solution of the peptide and the strain was plated on the TS agar plate at a constant size, and incubated in an incubator at 37° C. for 18 hours, and then colony formation on the plate was checked.
as §3, §4, §5, §6

[11] = system: Acinetobacter baumannii (ATCC 19606); assay: Minimum bactericidal concentration (MBC) assay; format: cell-based
Description: as §2, §3, §4
as §5, with “checked. The minimum bactericidal concentration was defined as the minimum concentration of the peptide at which no colony was formed, and the experimental results are shown in Table 2 below.” for “checked.”

[12] = system: Enterococcus faecalis (ATCC 19433); assay: Minimum bactericidal concentration (MBC) assay; format: cell-based
Description: as §2, §3, §4
as §5, with “checked. The minimum bactericidal concentration was defined as the minimum concentration of the peptide at which no colony was formed, and the experimental results are shown in Table 2 below.” for “checked.”

[13] = system: Bacillus subtilis (ATCC 6633); assay: Minimum bactericidal concentration (MBC) assay; format: cell-based
Description: as §2, §3, §4
as §5, with “checked. The minimum bactericidal concentration was defined as the minimum concentration of the peptide at which no colony was formed, and the experimental results are shown in Table 2 below.” for “checked.”

[14] = system: Klebsiella pneumoniae (ATCC 13883); assay: Minimum bactericidal concentration (MBC) assay; format: cell-based
Description: as §2, §3, §4
as §5, with “checked. The minimum bactericidal concentration was defined as the minimum concentration of the peptide at which no colony was formed, and the experimental results are shown in Table 2 below.” for “checked.”

[15] = system: Escherichia coli (ATCC 25922); assay: Minimum bactericidal concentration (MBC) assay; format: cell-based
Description: as §2, §3, §4
as §5, with “checked. The minimum bactericidal concentration was defined as the minimum concentration of the peptide at which no colony was formed, and the experimental results are shown in Table 2 below.” for “checked.”

[16] = system: Enterococcus faecium (ATCC 19434); assay: Minimum bactericidal concentration (MBC) assay; format: cell-based
Description: as §2, §3, §4
as §5, with “checked. The minimum bactericidal concentration was defined as the minimum concentration of the peptide at which no colony was formed, and the experimental results are shown in Table 2 below.” for “checked.”

[17] = system: Enterobacter aerogenes (ATCC 13048); assay: Minimum bactericidal concentration (MBC) assay; format: cell-based
Description: as §2, §3, §4
as §5, with “checked. The minimum bactericidal concentration was defined as the minimum concentration of the peptide at which no colony was formed, and the experimental results are shown in Table 2 below.” for “checked.”

[18] = system: Streptomyces sindenensis (ATCC 12392); assay: Minimum bactericidal concentration (MBC) assay; format: cell-based
Description: as §2, §3, §4
as §5, with “checked. The minimum bactericidal concentration was defined as the minimum concentration of the peptide at which no colony was formed, and the experimental results are shown in Table 2 below.” for “checked.”

[19] = system: CRPA; assay: MBC, evaluation of antibacterial activities of KU-5878 variants; format: cell-based; conditions: Tables 11-15, no unit printed
[20] = system: Pseudomonas aeruginosa and Staphylococcus aureus; assay: MBC assay, antibacterial activity of Romo1-derived peptides compared in words; format: cell-based; conditions: Table 1 peptides
Source text: Romo1 protein comprises two α-helices. The present inventors synthesized the α-helix 2 region having both hydrophilicity and hydrophobicity, and evaluated the antibacterial activity thereof using minimum bactericidal concentration (MBC) assay. The α-helix 2 region was named KU-5279 (the 52-79 amino acid region of Romo1 protein). Then, in order to identify peptides that are beneficial for human application and have excellent antibacterial activity, the present inventors synthesized several peptides comprising a sequence of contiguous amino acids starting at any amino acid selected from the 52-79 amino acid region of Romo1 protein, and comparatively evaluated the antibacterial activities of the peptides by minimum bactericidal concentration assay (See Table 1 below for information on each peptide). Evaluation of the antibacterial activity of each peptide by minimum bactericidal concentration assay was specifically performed as follows. First, each of Pseudomonas aeruginosa (ATCC 27853) and Staphylococcus aureus (ATCC 29213) was cultured in 3% (w/v) TSB (Tryptic Soy Broth) liquid medium at 37° C. and 200 rpm for 4 hours, and then further cultured under the same conditions for 3 hours to a concentration of 5×10^6 CFU/ml. […]

| Compound | hemolysis of red blood cells [3] | MBC value (μg/ml) against methicillin-resistant Staphylococcus aureus [9] | MBC value (μg/ml) against multidrug-resistant Pseudomonas aeruginosa [10] | MBC value (μg/ml) against Staphylococcus aureus ([1]; ATCC 29213, 1 h) | MBC value (μg/ml) against Pseudomonas aeruginosa ([2]; ATCC 27853, 1 h) | MBC CRPA [19] | MBC MRSA [9] | MBC Staphylococcus aureus [1] | MBC Pseudomonas aeruginosa [2] | also measured |
| --- | --- | --- | --- | --- | --- | --- | --- | --- | --- | --- |
| CC[C@H](C)[C@H](NC(=O)CNC(=O)[C@H](CCSC)NC(=O)CNC(=O)[C@@H](NC(=O)[C@H](C)NC(=O)[C@H](CCSC)NC(=O)[C@H](Cc1ccccc1)NC(=O)[C@@H](NC(=O)CNC(=O)[C@H](Cc1ccccc1)NC(=O)[C@@H](CCCCN)NC(=O)CNC(=O)CNC(=O)[C@@H](CCCCN)NC(=O)[C@@H](CCCCN)NC(=O)[C@H](CCSC)NC(=O)[C@H](CCSC)NC(=O)[C@@H](CCCCN)NC(=O)[C@@H](N)CCCCN)[C@@H](C)O)[C@@H](C)CC)C(=O)N[C@@H](CCCNC(=N)N)C(=O)O [KU-5878-K4-D] (H-K[dK]MM[dK][dK]GG[dK]FGTFMAIGMGIR-OH) | little hemolysis of red blood cells | – | – | – | – | – | – | – | – | MBC (μg/ml) value against Staphylococcus aureus ([1]; ATCC 29213, 1 h): 3 µg/mL (≈ 1.29 µM); MBC (μg/ml) value against Pseudomonas aeruginosa ([2]; ATCC 27853, 1 h): 3 µg/mL (≈ 1.29 µM) |
| KKMMKKGGKFGTFMAIGMGIR [KU-5878-K4] | little hemolysis of red blood cells | 5 µg/mL | 5 µg/mL | 3 µg/mL | 4 µg/mL | – | – | – | – | MBC value (μg/ml), Multidrug-resistant A. baumannii [4]: 4 µg/mL; MBC value (μg/ml), Multidrug-resistant K. pneumoniae [5]: 5 µg/mL; MBC value (μg/ml), Vancomycin-resistant E. faecium [6]: 5 µg/mL; MBC value (μg/ml), Streptococcus pneumoniae [7]: 4 µg/mL; MBC value (μg/ml), Vancomycin-resistant S. aureus [8]: 6 µg/mL; MBC value (μg/ml), Acinetobacter baumannii [11]: 4 µg/mL; MBC value (μg/ml), Enterococcus faecalis [12]: 5 µg/mL; MBC value (μg/ml), Bacillus subtilis [13]: 5 µg/mL; MBC value (μg/ml), Klebsiella pneumoniae [14]: 5 µg/mL; MBC value (μg/ml), Escherichia coli [15]: 5 µg/mL; MBC value (μg/ml), Enterococcus faecium [16]: 5 µg/mL; MBC value (μg/ml), Enterobacter aerogenes [17]: 5 µg/mL; MBC value (μg/ml), Streptomyces sindenensis [18]: 5 µg/mL; MBC (μg/ml) value against Staphylococcus aureus ([1]; ATCC 29213): 3 µg/mL; MBC (μg/ml) value against Pseudomonas aeruginosa ([2]; ATCC 27853): 4 µg/mL |
| KKMMKSGGTFGTFMAIGMGIR [KU-5878-K2] | – | 8 µg/mL | 8 µg/mL | 8 µg/mL | 8 µg/mL | 6 µg/mL | 8 µg/mL | 8 µg/mL | 8 µg/mL | – |
| CLRIGMRGRELM [pCM12, reference compound] | – | – | – | >300 µg/mL | >300 µg/mL | – | – | – | – | antibacterial activity by MBC assay, in words [20]: low bactericidal activity |
| KTMMQSGGTFGTFMAIGMGIK [KU-5878-R78K] | – | >300 µg/mL | >300 µg/mL | >300 µg/mL | >300 µg/mL | > 300 µg/mL | > 300 µg/mL | > 300 µg/mL | > 300 µg/mL | – |
| KTMMQKGGTFGTFMAIGMGIR [KU-5878-S63K] | – | 60 µg/mL | 60 µg/mL | 50 µg/mL | 60 µg/mL | 50 µg/mL | 50 µg/mL | 50 µg/mL | 60 µg/mL | – |
